Reference: the CheMixHub ionic liquid set

Experiment: xn = mol fraction of the nth substance listed

CCCCCCCC[N+](C)(C)C.[Br-] + O
298.15 K, 101 kPa
Conditions	viscosity [mPa·s]
x1 = 0.000891	0.9226
x1 = 0.001742	0.956
x1 = 0.002174	0.9692
x1 = 0.002616	0.9795
x1 = 0.003154	0.9978
x1 = 0.003538	1.012
x1 = 0.004276	1.036
x1 = 0.004645	1.048
x1 = 0.005039	1.058
x1 = 0.005479	1.076

CCCCCCCC[n+]1cccc(C)c1.F[B-](F)(F)F + O
298.15 K, 101 kPa
Conditions	electrical conductivity [S/m]
x1 = 4.685e-05	0.024
x1 = 0.0001279	0.063
x1 = 0.000272	0.127
x1 = 0.0003045	0.142
x1 = 0.0004197	0.19
x1 = 0.0005619	0.248
x1 = 0.0007023	0.308
x1 = 0.0007922	0.33
x1 = 0.0008948	0.377
x1 = 0.0009955	0.402
x1 = 0.00103	0.408
x1 = 0.001107	0.419
x1 = 0.001265	0.42
x1 = 0.00128	0.42
x1 = 0.001371	0.421
x1 = 0.001459	0.421
x1 = 0.001608	0.422
x1 = 0.00177	0.422
x1 = 0.001919	0.422
x1 = 0.002066	0.423
x1 = 0.002642	0.425

CCCCCC[n+]1ccn(C)c1.N[C@@H](CCC(=O)O)C(=O)[O-] + O
298.15 K, 100 kPa
Conditions	electrical conductivity [S/m]
x1 = 0.001278	0.2317
x1 = 0.002014	0.338
x1 = 0.00309	0.46
x1 = 0.004145	0.577
x1 = 0.004824	0.676
x1 = 0.00584	0.783
x1 = 0.007281	0.923
x1 = 0.008947	1.011
x1 = 0.01064	1.107
x1 = 0.01274	1.2
x1 = 0.01517	1.26
x1 = 0.01798	1.28

CCCCCCn1cc[n+](CCCCCC)c1.O=S(=O)([N-]S(=O)(=O)C(F)(F)F)C(F)(F)F + O
100 kPa, x2 = 0.1489
Conditions	viscosity [mPa·s]
303.15 K	65.69
328.15 K	24.7

CCCC[P+](CCCC)(CCCC)CCCC.[Br-] + O
Conditions	viscosity [mPa·s]
298.15 K, 101 kPa, x1 = 0.09759	10.65

CC[NH+](C)CC.CS(=O)(=O)[O-] + O
Conditions	viscosity [mPa·s]
293.1 K, 101 kPa, x2 = 0.707	21
298.15 K, 100 kPa, x1 = 0.0967	4.51
298.15 K, 100 kPa, x1 = 0.4263	31.1
298.15 K, 100 kPa, x1 = 0.6771	69.7
303.15 K, 100 kPa, x1 = 0.0967	3.94
303.15 K, 100 kPa, x1 = 0.3246	16.6
303.15 K, 100 kPa, x1 = 0.6771	55.2
308.15 K, 100 kPa, x1 = 0.0155	1.04
308.15 K, 100 kPa, x1 = 0.5018	27.9
308.15 K, 100 kPa, x1 = 0.5783	34.2
308.15 K, 100 kPa, x1 = 0.7782	55.3
313.1 K, 101 kPa, x2 = 0.372	27.27
313.15 K, 100 kPa, x1 = 0.0571	1.79
313.15 K, 100 kPa, x1 = 0.3246	11.8
313.15 K, 100 kPa, x1 = 0.4263	18
318.15 K, 100 kPa, x1 = 0.1582	4.46
328.15 K, 100 kPa, x1 = 0.1582	3.46
328.15 K, 100 kPa, x1 = 0.206	4.6
328.15 K, 100 kPa, x1 = 0.5018	14.1
328.15 K, 100 kPa, x1 = 0.7782	25.4
333.1 K, 101 kPa, x2 = 0.372	13.95
333.1 K, 101 kPa, x2 = 0.507	9.98
333.15 K, 100 kPa, x1 = 0.0967	1.97
333.15 K, 100 kPa, x1 = 0.3246	6.65
333.15 K, 100 kPa, x1 = 0.5018	12.2
338.15 K, 100 kPa, x1 = 0.0571	1.11
338.15 K, 100 kPa, x1 = 0.3246	5.84
338.15 K, 100 kPa, x1 = 0.4263	8.21
338.15 K, 100 kPa, x1 = 0.5018	10.3
338.15 K, 100 kPa, x1 = 0.5783	12.2
338.15 K, 100 kPa, x1 = 0.6771	15.3
353.1 K, 101 kPa, x2 = 0.449	6.83
353.1 K, 101 kPa, x2 = 0.624	4.58

CC[n+]1ccn(C)c1.O=C([O-])C(F)(F)C(F)(F)C(F)(F)C(F)(F)F + O
101 kPa
Conditions	viscosity [mPa·s]
298.15 K, x1 = 0.02217	2.59
298.15 K, x1 = 0.1009	10.41
298.15 K, x1 = 0.2367	20.95
298.15 K, x1 = 0.4266	36.3
308.15 K, x1 = 0.03108	2.57
308.15 K, x1 = 0.04277	3.44
308.15 K, x1 = 0.08573	6
308.15 K, x1 = 0.1458	9.48
308.15 K, x1 = 0.2011	12.32
308.15 K, x1 = 0.2621	15.23
308.15 K, x1 = 0.3007	17.04
318.15 K, x1 = 0.02217	1.616
318.15 K, x1 = 0.1458	6.88
318.15 K, x1 = 0.1625	7.47

CC[n+]1ccn(C)c1.O=S(=O)([O-])C(F)(F)F + O
101 kPa
Conditions	electrical conductivity [S/m]	viscosity [mPa·s]
293.15 K, x1 = 0.004	–	1.07
293.15 K, x1 = 0.029	–	1.67
293.15 K, x1 = 0.041	–	2.01
293.15 K, x1 = 0.463	–	13.6
297.45 K, x2 = 0.304	1.17	–
298.15 K, x1 = 0.005	1.4	0.99
298.15 K, x1 = 0.012	2.3	1.11
298.15 K, x1 = 0.017	–	1.23
298.15 K, x1 = 0.041	–	1.78
298.15 K, x1 = 0.064	4.4	2.17
298.15 K, x1 = 0.137	4.6	3.71
303.15 K, x1 = 0.008	–	0.92
303.15 K, x1 = 0.017	–	1.09
303.15 K, x1 = 0.137	–	3.27
303.15 K, x1 = 0.391	–	8.23
303.65 K, x2 = 0.304	1.46	–
305.35 K, x2 = 0.304	1.58	–
313.15 K, x1 = 0.004	–	0.7
313.15 K, x1 = 0.017	3.9	0.89
313.15 K, x1 = 0.029	5.1	1.05
313.15 K, x1 = 0.137	6.3	2.58

COCC[n+]1ccn(C)c1.C[C@@H](O)[C@H](N)C(=O)[O-] + O
100 kPa
Conditions	viscosity [mPa·s]
303.15 K, x1 = 0.5348	557
303.15 K, x1 = 0.6571	581
308.15 K, x1 = 0.3313	297
318.15 K, x1 = 0.5348	163.8
323.15 K, x1 = 0.4476	114.9
323.15 K, x1 = 0.5348	120.9
323.15 K, x1 = 0.6571	126.6

C[NH+](C)C.O=S(=O)([O-])O + O
298.15 K, 101 kPa
Conditions	viscosity [mPa·s]
x2 = 0.0727	4.98
x2 = 0.2456	4.64
x2 = 0.3339	4.43
x2 = 0.5675	3.69
x2 = 0.8484	2.18
x2 = 0.9552	1.3

O=S(=O)([O-])C(F)(F)F.[Li+] + O
Conditions	electrical conductivity, 298.1 K [S/m]	electrical conductivity, 298.15 K [S/m]	electrical conductivity, 308.15 K [S/m]	electrical conductivity, 318.15 K [S/m]	electrical conductivity, 328.15 K [S/m]	viscosity, 298.15 K [mPa·s]	viscosity, 308.15 K [mPa·s]	viscosity, 318.15 K [mPa·s]	viscosity, 328.15 K [mPa·s]
100 kPa, x1 = 0.1122	–	7.3	8.94	10.9	12.7	3.7	2.9	2.27	1.85
100 kPa, x1 = 0.1783	–	4.63	5.73	6.99	8.17	9.2	6.9	5.3	4.2
100 kPa, x1 = 0.2388	–	2.6	3.26	4.06	4.89	21.9	16	11.1	8.6
100 kPa, x1 = 0.2541	–	1.98	2.53	3.16	3.92	31.8	22.6	15.9	12.2
100 kPa, x1 = 0.2743	–	1.56	2.04	2.59	3.2	47.2	32.9	23.9	18.1
101 kPa, x1 = 0.01944	4.69	–	–	–	–	–	–	–	–
101 kPa, x1 = 0.1527	4.69	–	–	–	–	–	–	–	–
101 kPa, x1 = 0.2649	1.34	–	–	–	–	–	–	–	–
101 kPa, x1 = 0.3106	0.51	–	–	–	–	–	–	–	–

[Br-].[PH3+]CCCCCCCCCCCCCC(c1ccccc1)(c1ccccc1)c1ccccc1 + O
300 K, 101 kPa
Conditions	electrical conductivity [S/m]
x2 = 0.503	0.00198
x2 = 0.603	0.00058
x2 = 0.802	0.00038

CC[n+]1ccn(C)c1.O=S(=O)([O-])C(F)(F)F + O + CC(=O)[O-].CC[n+]1ccn(C)c1
293.15 K, 100 kPa
Conditions	viscosity [mPa·s]
x2 = 0.337, x3 = 0.64	91
x2 = 0.341, x3 = 0.612	87
x2 = 0.348, x3 = 0.555	80
x2 = 0.359, x3 = 0.492	72

CC[NH+](C)CC.CS(=O)(=O)[O-] + O + CC[NH+](C)CC.O=S(=O)([O-])C(F)(F)F
101 kPa, x2 = 0.121, x3 = 0
Conditions	viscosity [mPa·s]
313.15 K	46.5
333.15 K	21.6
353.15 K	12.05
